Numbers after ± are expanded uncertainties.
Details: Liquid, Closed cell (Static) method

| Structure (SMILES) | vapor or sublimation pressure (303.15 K) [kPa] | vapor or sublimation pressure (313.15 K) [kPa] | vapor or sublimation pressure (308.15 K) [kPa] | vapor or sublimation pressure (318.15 K) [kPa] |
| --- | --- | --- | --- | --- |
| CCO [ethanol] | 10.43 ± 0.29 | 17.84 ± 0.32 |  |  |
| CC(C)O [propan-2-ol] | 7.933 ± 0.28 |  | 10.72 ± 0.29 |  |
| O [water] | 4.186 ± 0.27 | 7.346 ± 0.27 | 5.493 ± 0.27 | 9.493 ± 0.27 |

From the NIST ThermoML archive (doi:10.1021/je100624p)
